Ends that are not written are not given here. Peptide text beside a SMILES is read from it. * marks the point of attachment. Biotin = O=C1N[C@H]2[C@H](CS[C@H]2CCCCC(=O)*)N1

Holding throughout (assay): G' assay (10 uM PL peptide), results of TABLE 7 and TABLE 12
Common to all, as to format: binding

The target of assay [1] is T1, PDZ protein (GST-PDZ fusion) (Homo sapiens, UniProt Q13424).
T1 construct: made in house; host or cells: E. coli (DH5alpha, BL21 or JM109)
T1 sequence (Q13424 1-505): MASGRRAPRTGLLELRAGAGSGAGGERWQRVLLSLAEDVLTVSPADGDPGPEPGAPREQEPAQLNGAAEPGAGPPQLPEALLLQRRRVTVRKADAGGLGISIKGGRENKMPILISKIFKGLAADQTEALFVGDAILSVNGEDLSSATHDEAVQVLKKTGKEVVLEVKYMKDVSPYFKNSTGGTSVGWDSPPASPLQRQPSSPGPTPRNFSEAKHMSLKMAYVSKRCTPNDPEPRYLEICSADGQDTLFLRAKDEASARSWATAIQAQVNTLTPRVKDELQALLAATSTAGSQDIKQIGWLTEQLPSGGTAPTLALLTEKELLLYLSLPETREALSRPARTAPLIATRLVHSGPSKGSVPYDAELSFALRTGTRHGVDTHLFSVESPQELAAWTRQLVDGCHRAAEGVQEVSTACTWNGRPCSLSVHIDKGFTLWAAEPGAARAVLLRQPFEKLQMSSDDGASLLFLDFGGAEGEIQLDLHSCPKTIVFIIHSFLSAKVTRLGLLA
As to conditions: PDZ Synt. 1 alpha, PDZ Domain 1. In outline:
(§1)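 Biotinylated PL peptides at 10 uM (vs 20 uM in G^0 assay) bound to GST-PDZ fusions; PDZ protein at 5 ug/ml unless another concentration listed. Bound peptide read as A450 nm, classified 0–5 (0 = A450 0; 5 = A450 >4 repeated).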

For assay [2], the target named is T2, PDZ protein (GST-PDZ fusion) (Homo sapiens, UniProt Q9NY99).
T2 construct: made in house; host or cells: E. coli (DH5alpha, BL21 or JM109)
T2 sequence (Q9NY99 1-539): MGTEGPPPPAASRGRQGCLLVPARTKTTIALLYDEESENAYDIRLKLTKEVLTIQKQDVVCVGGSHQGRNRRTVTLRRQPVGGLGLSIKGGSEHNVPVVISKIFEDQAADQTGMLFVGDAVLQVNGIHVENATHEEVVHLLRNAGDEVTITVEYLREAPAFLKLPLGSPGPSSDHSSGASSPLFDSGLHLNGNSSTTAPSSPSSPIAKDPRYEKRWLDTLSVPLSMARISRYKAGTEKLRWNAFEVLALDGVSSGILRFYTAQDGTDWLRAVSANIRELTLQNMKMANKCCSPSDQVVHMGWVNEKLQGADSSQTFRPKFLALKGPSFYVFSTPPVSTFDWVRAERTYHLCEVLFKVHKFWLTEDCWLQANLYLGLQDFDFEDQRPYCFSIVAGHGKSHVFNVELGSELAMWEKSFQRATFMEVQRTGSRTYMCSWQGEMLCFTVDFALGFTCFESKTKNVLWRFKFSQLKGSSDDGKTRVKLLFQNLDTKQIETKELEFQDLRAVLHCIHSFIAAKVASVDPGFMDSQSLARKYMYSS
As to conditions: PDZ Syntrophin gamma-2, PDZ Domain 1. An outline of the steps: as §1

The target in assay [3] is T3, PDZ protein (GST-PDZ fusion) (Homo sapiens, UniProt P50479).
T3 construct: made in house; host or cells: E. coli (DH5alpha, BL21 or JM109)
T3 sequence (P50479 1-330): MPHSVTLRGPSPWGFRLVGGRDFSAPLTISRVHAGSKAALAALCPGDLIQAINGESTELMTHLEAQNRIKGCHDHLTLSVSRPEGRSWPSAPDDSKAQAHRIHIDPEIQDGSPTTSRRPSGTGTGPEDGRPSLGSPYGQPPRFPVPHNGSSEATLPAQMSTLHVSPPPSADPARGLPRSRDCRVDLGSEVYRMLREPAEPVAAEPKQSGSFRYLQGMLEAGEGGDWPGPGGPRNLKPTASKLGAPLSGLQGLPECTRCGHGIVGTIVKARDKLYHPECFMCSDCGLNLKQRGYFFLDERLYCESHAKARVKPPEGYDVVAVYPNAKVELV
As to conditions: PDZ LIM RIL, PDZ Domain 1. An outline of the steps: as §1

“ARHRVTSYTSSSVNVSSNL (Biotin-ARHRVTSYTSSSVNVSSNL) [IL-8RB]”: in assay [1], the Classification is 1 (A450 nm 0-1). Same read-out and setting: then `CC[C@H](C)[C@H](NC(=O)[C@H](Cc1c[nH]cn1)NC(=O)[C@H](C)NC(=O)[C@H](C)NC(=O)[C@H](CO)NC(=O)[C@@H]1CCCN1C(=O)[C@H](CCCNC(=N)N)NC(=O)[C@H](CC(=O)O)NC(=O)[C@H](CCCCN)NC(=O)[C@@H]1CCCN1C(=O)[C@H](CC(=O)O)NC(=O)[C@H](CCC(=O)O)NC(=O)CCCC[C@@H]1SC[C@@H]2NC(=O)N[C@@H]21)C(=O)N[C@H](C(=O)N[C@@H](CCC(=O)O)C(=O)N[C@@H](C)C(=O)N[C@@H](CC(C)C)C(=O)N[C@@H](CCC(=O)O)C(=O)N[C@H](C(=O)N[C@@H](CC(=O)O)C(=O)N[C@H](C(=O)O)C(C)C)[C@@H](C)O)C(C)C` [PDZ-binding kinase (PBK)] (Biotin-EDPKDRPSAAHIVEALETDV-OH; C-terminus assumed), with 1 (A450 nm 0-1). As for `CC[C@H](C)[C@H](NC(=O)[C@H](CCC(N)=O)NC(=O)CCCC[C@@H]1SC[C@@H]2NC(=O)N[C@@H]21)C(=O)N[C@@H](CO)C(=O)N1CCC[C@H]1C(=O)NCC(=O)NCC(=O)N[C@@H](CC(C)C)C(=O)N[C@@H](CCC(=O)O)C(=O)N1CCC[C@H]1C(=O)N1CCC[C@H]1C(=O)N[C@@H](CO)C(=O)N[C@@H](CCC(=O)O)C(=O)N[C@@H](CCCCN)C(=O)N[C@@H](Cc1c[nH]cn1)C(=O)N[C@@H](Cc1ccccc1)C(=O)N[C@@H](CCCNC(=N)N)C(=O)N[C@@H](CCC(=O)O)C(=O)N[C@H](C(=O)N[C@@H](CCC(=O)O)C(=O)N[C@H](C(=O)O)C(C)C)[C@@H](C)O` [Tax], the Classification in assay [2] and in assay [3] was 1 (A450 nm 0-1) in each case. In the case of TQGFPGPATWRRISSLESEV, the Classification in assay [1] is on record as 4 (A450 nm 3-4); in assay [2], 2 (A450 nm 1-2); in assay [3], 5 (A450 nm of 4 more than 2× repeated). With “QATSRNGHSARQHVVADTEL (Biotin-QATSRNGHSARQHVVADTEL) [CD34]”, in assay [3], the Classification is recorded as 1 (A450 nm 0-1).

Take “LASKSAEEGKQIPDSLSTDL (Biotin-LASKSAEEGKQIPDSLSTDL) [Dock2]”: the Classification in assay [3] is 1 (A450 nm 0-1). With `CC(C)C[C@H](NC(=O)[C@H](CC(=O)O)NC(=O)[C@H](CO)NC(=O)[C@H](CCC(=O)O)NC(=O)CNC(=O)[C@H](Cc1ccc(O)cc1)NC(=O)[C@H](CC(C)C)NC(=O)[C@H](C)NC(=O)[C@H](CO)NC(=O)[C@H](CO)NC(=O)[C@H](Cc1ccccc1)NC(=O)[C@H](C)NC(=O)[C@H](C)NC(=O)[C@H](Cc1ccc(O)cc1)NC(=O)[C@H](CC(=O)O)NC(=O)[C@H](CC(C)C)NC(=O)[C@H](C)NC(=O)CNC(=O)[C@@H]1CCCN1C(=O)[C@@H](NC(=O)CCCC[C@@H]1SC[C@@H]2NC(=O)N[C@@H]21)C(C)C)C(=O)O` [a-actinin 2] (Biotin-VPGALDYAAFSSALYGESDL-OH; C-terminus assumed), the Classification in assay [1] is listed as 3 (A450 nm 2-3); in assay [2] it was 1 (A450 nm 0-1); in assay [3], 5 (A450 nm of 4 more than 2× repeated). On to “VHDAESSDEDGYDWGPATDL (Biotin-VHDAESSDEDGYDWGPATDL) [zona occludens 3 (ZO-3)]”, for which the Classification in assay [3] is on record as 2 (A450 nm 1-2). In the case of `CSCC[C@H](NC(=O)[C@H](C)NC(=O)[C@H](CCCNC(=N)N)NC(=O)CNC(=O)[C@@H](NC(=O)[C@H](Cc1c[nH]c2ccccc12)NC(=O)[C@H](CCCNC(=N)N)NC(=O)CNC(=O)CCCC[C@@H]1SC[C@@H]2NC(=O)N[C@@H]21)[C@@H](C)O)C(=O)N[C@@H](CO)C(=O)N[C@@H](C)C(=O)N[C@@H](Cc1c[nH]c2ccccc12)C(=O)N[C@@H](CCCCN)C(=O)N1CCC[C@H]1C(=O)N[C@H](C(=O)N[C@@H](CCCNC(=N)N)C(=O)N[C@@H](CCCNC(=N)N)C(=O)N[C@@H](CCC(=O)O)C(=O)N[C@H](C(=O)N[C@@H](CCC(=O)O)C(=O)N[C@H](C(=O)O)C(C)C)[C@@H](C)O)[C@@H](C)O` [HPV E6 #35 (modified)] (Biotin-GRWTGRAMSAWKPTRRETEV-OH; C-terminus assumed), the Classification in assay [1] is on record as 5 (A450 nm of 4 more than 2× repeated); in assay [2], 3 (A450 nm 2-3); in assay [3], 4 (A450 nm 3-4). Turning to “PYSELNYETSHYPASPDSWV (Biotin-PYSELNYETSHYPASPDSWV) [catenin - delta 2]”, in assay [3], the Classification is recorded as 2 (A450 nm 1-2). Consider `CC(C)C[C@H](NC(=O)[C@H](C)NC(=O)[C@H](CO)NC(=O)CNC(=O)[C@@H](NC(=O)CCCC[C@@H]1SC[C@@H]2NC(=O)N[C@@H]21)[C@@H](C)O)C(=O)N[C@@H](CCC(N)=O)C(=O)N[C@@H](C)C(=O)N[C@@H](Cc1c[nH]c2ccccc12)C(=O)N[C@@H](CCCNC(=N)N)C(=O)N[C@@H](Cc1c[nH]cn1)C(=O)N[C@H](C(=O)N[C@@H](CO)C(=O)N[C@@H](CCCNC(=N)N)C(=O)N[C@@H](CCC(N)=O)C(=O)N[C@@H](C)C(=O)N[C@H](C(=O)N[C@@H](CCC(=O)O)C(=O)N[C@@H](CO)C(=O)N[C@H](C(=O)N[C@H](C(=O)O)C(C)C)[C@@H](C)O)[C@@H](C)O)[C@@H](C)O` [HPV E6 #66 (modified)] (Biotin-TGSALQAWRHTSRQATESTV-OH; C-terminus assumed), for which the Classification in assay [1] is 2 (A450 nm 1-2); in assay [2], 1 (A450 nm 0-1). As to “PPATPSPRLALPAHHNATRL (Biotin-PPATPSPRLALPAHHNATRL) [Na+/Pi cotransporter 2]”, in assay [2], the Classification was 1 (A450 nm 0-1).

`CC(C)C[C@H](NC(=O)[C@H](C)NC(=O)[C@@H](NC(=O)[C@H](CCC(=O)O)NC(=O)[C@H](CCCNC(=N)N)NC(=O)[C@H](CCCNC(=N)N)NC(=O)CNC(=O)[C@H](CCC(N)=O)NC(=O)[C@H](CC(C)C)NC(=O)[C@H](CCCNC(=N)N)NC(=O)CNC(=O)CNC(=O)[C@H](CCCNC(=N)N)NC(=O)[C@H](C)NC(=O)[C@H](CO)NC(=O)[C@H](CCCNC(=N)N)NC(=O)CNC(=O)CNC(=O)[C@H](C)NC(=O)[C@H](C)NC(=O)CCCC[C@@H]1SC[C@@H]2NC(=O)N[C@@H]21)[C@@H](C)O)C(=O)O` [HPV E6 33 (modified)] (Biotin-AAGGRSARGGRLQGRRETAL-OH; C-terminus assumed): the Classification in assay [1] is given as 3 (A450 nm 2-3); in assay [2] it was 1 (A450 nm 0-1). On to “ELLQFCRTPNPALKNGQYWV (Biotin-ELLQFCRTPNPALKNGQYWV)”, for which the Classification in assay [3] is 2 (A450 nm 1-2). Regarding `CC(C)C[C@H](NC(=O)[C@H](CCCNC(=N)N)NC(=O)CNC(=O)CNC(=O)[C@H](CCCNC(=N)N)NC(=O)[C@H](C)NC(=O)[C@@H]1CCCN1C(=O)[C@H](CCCNC(=N)N)NC(=O)CNC(=O)CNC(=O)[C@@H](NC(=O)[C@H](C)NC(=O)CCCC[C@@H]1SC[C@@H]2NC(=O)N[C@@H]21)C(C)C)C(=O)N[C@@H](CCC(N)=O)C(=O)NCC(=O)N[C@@H](CCCNC(=N)N)C(=O)N[C@@H](CCCNC(=N)N)C(=O)N[C@@H](CCC(N)=O)C(=O)N[C@H](C(=O)N[C@@H](CCC(N)=O)C(=O)N[C@H](C(=O)O)C(C)C)[C@@H](C)O` [HPV E6 58 (modified)] (Biotin-AVGGRPARGGRLQGRRQTQV-OH; C-terminus assumed), in assay [1], the Classification is 2 (A450 nm 1-2).

The values above are taken from patent US20050282743A1, “Molecular interactions in cells” (Arbor Vita Corporation, priority 2001, published 2005).
